Patent US20050250801A1, “Method of treating cancer with azaspirane compositions” (priority 2003, published 2005)
Where two headings read alike, the source gives them in different places.

What was measured:
[1] = tested on: HUVEC cells; assay: Induction of apoptosis, DNA fragmentation analysis, HUVEC; assay type: cell-based, human; settings: 16 hours treatment
Protocol: T84, CaCo-2 and HUVEC cells, respectively, were grown in 100 mm dishes for 7-9 days, culture media for HUVEC was EGM-2 (Clonetics, BioWhitaker Co.), until they reached semi-confluency. Cell monolayers were then treated for 12 hours (CaCo-2 and T84) and 16 hours (HUVEC), respectively, at the indicated concentrations of N,N,-diethyl-8,8-dipropyl-2-azaspiro[4,5]decane-2-propanamine dimaleate (Compound 1) in culture media. Cells were collected by trypsinization and the apoptotic DNA was isolated from these cells following the instructions of the DNA fragmentation analysis kit (Boehringer Mannheim Corp., Indianapolis, Ind.). The apoptotic DNA was evaluated using 1.5% agarose gel electrophoresis followed by staining with ethidium bromide. M denotes the lane containing molecular weight markers of DNA.

[2] = tested on: HUVEC; assay: HUVEC cell migration assay (Boyden chamber); assay type: cell-based; settings: Homo sapiens, 5 hours incubation, read-out: IC50 Concentration, Migration
Protocol: Migration is assessed using the 48-well Boyden chamber and 8 μm pore size collagen-coated (10 μg/ml rat tail collagen; Collaborative Laboratories) polycarbonate filters (Osmonics, Inc.). The bottom chamber wells receive 27-29 μl of Dulbecco's Modified Eagle Medium (“DMEM”) alone (baseline) or medium containing chemo-attractant (bFGF, VEGF or […] cell conditioned medium). The top chambers receive 45 μl of a HUVEC cell suspension (1×10^6 cells/ml) prepared in DMEM+1% Bovine Serum Albumin (“BSA”) with or without test compound. After 5 hours incubation at 37° C. the membrane is rinsed in Phosphate Buffer Saline (“PBS”), fixed and stained in Diff-Quick solutions. The filter is placed on a glass slide with the migrated cells facing down and cells on top are removed using a Kimwipe. The testing is performed in 4-6 replicates and five fields are counted from each well. Negative unstimulated control values are subtracted from stimulated control and drug treated values and data is plotted as mean migrated cell±Standard Deviation.

[3] = tested on: SW-620; assay: NCI in vitro SRB assay, Colon Cancer; assay type: cell-based; settings: for CC50 / GI50: Homo sapiens
Protocol: (§1) An in vitro assay which tested the ability of N,N,-diethyl-8,8-dipropyl-2-azaspiro[4,5]decane-2-propanamine dimaleate (Compound 1) to inhibit the growth of known cancer cell lines was performed by the National Cancer Institute in accordance with standard procedures. See: Lin, Z. X., Hoult, J. R., and Raman, A. Sulphorhodamine B assay for measuring proliferation of a pigmented melanocyte cell line and its application to the evaluation of crude drugs used in the treatment of vitiligo. J Ethnopharmacol. 66: 141-150, 1999. Briefly, selected tumor cell lines were cultured in media containing five different concentrations of Compound 1. After 48 hours of continuous exposure, a sulforhodamine B (SRB) assay was used to estimate cell viability or growth via optical measurements.
(§2) From the measurements, the following values were determined: 1) the concentration of Compound 1 at which a tumor cell growth inhibition of 50% (relative to control) occurs (GI50), 2) the concentration of Compound 1 at which no growth occurs (total growth inhibition, TGI), and 3) the concentration of Compound 1 at which the […] (LC 50). […] FIG. 6 illustrates, graphically, tumor cell growth as a function of Compound 1 concentration of the scanned tumor cell lines.

[4] = tested on: HCT-15; assay: NCI in vitro SRB assay, Colon Cancer; assay type: cell-based; settings: for CC50 / GI50: Homo sapiens
Protocol: as §1, §2

[5] = tested on: HCT-116; assay: NCI in vitro SRB assay, Colon Cancer; assay type: cell-based; settings: for CC50 / GI50: Homo sapiens
Protocol: as §1, §2

[6] = tested on: KM12; assay: NCI in vitro SRB assay, Colon Cancer; assay type: cell-based; settings: for CC50 / GI50: Homo sapiens
Protocol: as §1, §2

[7] = tested on: HCC-2998; assay: NCI in vitro SRB assay, Colon Cancer; assay type: cell-based; settings: for CC50 / GI50: Homo sapiens
Protocol: as §1, §2

[8] = SW-620, Log10 conc -4.0 Moles/L
[9] = SW-620, Log10 conc -5.0 Moles/L
[10] = SW-620, Log10 conc -6.0 Moles/L
[11] = SW-620, Log10 conc -7.0 Moles/L
[12] = SW-620, Log10 conc -8.0 Moles/L
[13] = HCT-15, Log10 conc -4.0 Moles/L
[14] = HCT-15, Log10 conc -5.0 Moles/L
[15] = HCT-15, Log10 conc -6.0 Moles/L
[16] = HCT-15, Log10 conc -7.0 Moles/L
[17] = HCT-15, Log10 conc -8.0 Moles/L
[18] = HCT-116, Log10 conc -4.0 Moles/L
[19] = HCT-116, Log10 conc -5.0 Moles/L
[20] = HCT-116, Log10 conc -6.0 Moles/L
[21] = HCT-116, Log10 conc -7.0 Moles/L
[22] = HCT-116, Log10 conc -8.0 Moles/L
[23] = HCC-2998, Log10 conc -4.0 Moles/L
[24] = HCC-2998, Log10 conc -5.0 Moles/L
[25] = HCC-2998, Log10 conc -6.0 Moles/L
[26] = HCC-2998, Log10 conc -7.0 Moles/L
[27] = HCC-2998, Log10 conc -8.0 Moles/L

CCCC1(CCC)CCC2(CCN(CCCN(CC)CC)C2)CC1.O=C(O)/C=C\C(=O)O.O=C(O)/C=C\C(=O)O [Compound 1, N,N,-diethyl-8,8-dipropyl-2-azaspiro[4,5]decane-2-propanamine dimaleate]
DNA ladder formation (apoptosis) [1]: formation of DNA laddering in a dose-dependent manner | IC50 [2]: 530 nM | CC50 ([3]; SW-620, read-out: LC50): 5170 nM | CC50 ([3]; SW-620, read-out: Log10 LC50 (converted)): 5130 nM | GI50 ([3]; SW-620, read-out: GI50): 1380 nM | GI50 ([3]; SW-620, read-out: Log10 GI50 (converted)): 1380 nM | Log10 TGI ([3]; SW-620): −5.57 | TGI ([3]; SW-620): 2670 nM | Mean Optical Densities [3, 8]: −0.016 | Percent Growth [3, 8]: −100% | Mean Optical Densities [3, 9]: −0.002 | Percent Growth [3, 9]: −100% | Mean Optical Densities [3, 10]: 0.789 | Percent Growth [3, 10]: 75% | Mean Optical Densities [3, 11]: 0.948 | Percent Growth [3, 11]: 95% | Mean Optical Densities [3, 12]: 0.948 | Percent Growth [3, 12]: 95% | Log10 TGI ([4]; HCT-15): −5.87 | TGI ([4]; HCT-15): 1340 nM | Mean Optical Densities [4, 13]: −0.026 | Percent Growth [4, 13]: −100% | Mean Optical Densities [4, 14]: −0.027 | Percent Growth [4, 14]: −100% | Mean Optical Densities [4, 15]: 0.371 | Percent Growth [4, 15]: 14% | Mean Optical Densities [4, 16]: 0.819 | Percent Growth [4, 16]: 75% | Mean Optical Densities [4, 17]: 0.878 | Percent Growth [4, 17]: 83% | CC50 ([4]; HCT-15, read-out: LC50): 3650 nM | CC50 ([4]; HCT-15, read-out: Log10 LC50 (converted)): 3630 nM | GI50 ([4]; HCT-15, read-out: GI50): 261 nM | GI50 ([4]; HCT-15, read-out: Log10 GI50 (converted)): 263 nM | Log10 TGI ([5]; HCT-116): −5.63 | TGI ([5]; HCT-116): 2370 nM | Mean Optical Densities [5, 18]: 0.061 | Percent Growth [5, 18]: −63% | Mean Optical Densities [5, 19]: 0.051 | Percent Growth [5, 19]: −69% | Mean Optical Densities [5, 20]: 0.407 | Percent Growth [5, 20]: 41% | Mean Optical Densities [5, 21]: 0.675 | Percent Growth [5, 21]: 87% | Mean Optical Densities [5, 22]: 0.744 | Percent Growth [5, 22]: 99% | CC50 ([5]; HCT-116, read-out: LC50): 6730 nM | CC50 ([5]; HCT-116, read-out: Log10 LC50 (converted)): 6760 nM | GI50 ([5]; HCT-116, read-out: GI50): 646 nM | GI50 ([5]; HCT-116, read-out: Log10 GI50 (converted)): 646 nM | CC50 ([6]; KM12, read-out: LC50): 7130 nM | CC50 ([6]; KM12, read-out: Log10 LC50 (converted)): 7080 nM | GI50 ([6]; KM12, read-out: GI50): 1510 nM | GI50 ([6]; KM12, read-out: Log10 GI50 (converted)): 1510 nM | Log10 TGI ([6]; KM12): −5.48 | TGI ([6]; KM12): 3290 nM | Mean Optical Densities ([6]; KM12, Log10 conc -4.0 Moles/L): 0.210 | Percent Growth ([6]; KM12, Log10 conc -4.0 Moles/L): −52% | Mean Optical Densities ([6]; KM12, Log10 conc -5.0 Moles/L): 0.123 | Percent Growth ([6]; KM12, Log10 conc -5.0 Moles/L): −72% | Mean Optical Densities ([6]; KM12, Log10 conc -6.0 Moles/L): 1.243 | Percent Growth ([6]; KM12, Log10 conc -6.0 Moles/L): 77% | Mean Optical Densities ([6]; KM12, Log10 conc -7.0 Moles/L): 1.402 | Percent Growth ([6]; KM12, Log10 conc -7.0 Moles/L): 92% | Mean Optical Densities ([6]; KM12, Log10 conc -8.0 Moles/L): 1.429 | Percent Growth ([6]; KM12, Log10 conc -8.0 Moles/L): 94% | Log10 TGI ([7]; HCC-2998): −6.62 | TGI ([7]; HCC-2998): 239 nM | Mean Optical Densities [7, 23]: 0.036 | Percent Growth [7, 23]: −84% | Mean Optical Densities [7, 24]: 0.019 | Percent Growth [7, 24]: −92% | Mean Optical Densities [7, 25]: 0.057 | Percent Growth [7, 25]: −74% | Mean Optical Densities [7, 26]: 0.303 | Percent Growth [7, 26]: 45% | Mean Optical Densities [7, 27]: 0.338 | Percent Growth [7, 27]: 64% | CC50 ([7]; HCC 2998, read-out: LC50): 628 nM | CC50 ([7]; HCC 2998, read-out: Log10 LC50 (converted)): 631 nM | GI50 ([7]; HCC-2998, read-out: GI50): 54.9 nM | GI50 ([7]; HCC-2998, read-out: Log10 GI50 (converted)): 55 nM
